The assay relates to L1210 leukemia ip in BDF1 mice, survival T/C. Description: NCI In Vivo Anticancer Drug Screen. Data for tumor model L1210 Leukemia (intraperitoneal) in B6D2F1 (BDF1) mice. The conditions noted are these: endpoint: mean survival time, higher = longer survival. A digest of the protocol:
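Ratio derived from survival: compound-dosed mice over vehicle-dosed mice, all bearing a transplantable tumor.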

The mark [1] stands for this setting: dose: 100.0 mg/kg/injection, schedule: Q01DX009 (ip), vehicle: Klucel (hydroxypropylcellulose) (HPC).
[2] abbreviates: dose: 200.0 mg/kg/injection, schedule: Q01DX009 (ip), vehicle: Klucel (hydroxypropylcellulose) (HPC).
Where [3] appears, read: dose: 400.0 mg/kg/injection, schedule: Q01DX009 (ip), vehicle: Klucel (hydroxypropylcellulose) (HPC).

“And” between values parts separate entries of the source, which are not always exact repeats. Identical values can stand only once. Toxic doses and inconclusive results are not listed.

Regarding `O=C(O)c1ccc(S(=O)(=O)O)cc1C(=O)O`, the T/C (dose: 50.0 mg/kg/injection, schedule: Q01DX001 (sc), vehicle: olive oil, sesame oil, peanut oil) is 104 % of control; the T/C (dose: 100.0 mg/kg/injection, schedule: Q01DX001 (sc), vehicle: olive oil, sesame oil, peanut oil) is 102 % of control; the T/C (dose: 100.0 mg/kg/injection, schedule: Q01DX009 (ip), vehicle: saline with Tween-80) was 89 % of control; the T/C (dose: 100.0 mg/kg/injection, schedule: Q04DX003 (ip), vehicle: saline) is 104 % of control; the T/C (dose: 200.0 mg/kg/injection, schedule: Q01DX001 (sc), vehicle: olive oil, sesame oil, peanut oil) was 96 % of control; the T/C (dose: 200.0 mg/kg/injection, schedule: Q01DX009 (ip), vehicle: saline with Tween-80) was 88 % of control. In addition, the T/C is, setting by setting: (dose: 200.0 mg/kg/injection, schedule: Q04DX003 (ip), vehicle: saline) 102 % of control; (dose: 400.0 mg/kg/injection, schedule: Q01DX001 (sc), vehicle: olive oil, sesame oil, peanut oil) 98 % of control; (dose: 400.0 mg/kg/injection, schedule: Q04DX003 (ip), vehicle: saline) 101 % of control.

Consider `CCCCCCCCCCCCCC(=O)CC(=O)OC`, for which the T/C by setting is: (dose: 75.0 mg/kg/injection, schedule: Q04DX003 (ip), vehicle: Klucel (hydroxypropylcellulose) (HPC)) 94 % of control; (dose: 100.0 mg/kg/injection, schedule: Q01DX001 (ip), vehicle: Klucel (hydroxypropylcellulose) (HPC)) 103 % of control; (dose: 150.0 mg/kg/injection, schedule: Q04DX003 (ip), vehicle: Klucel (hydroxypropylcellulose) (HPC)) 106 % of control; (dose: 200.0 mg/kg/injection, schedule: Q01DX001 (ip), vehicle: Klucel (hydroxypropylcellulose) (HPC)) 100 % of control; (dose: 300.0 mg/kg/injection, schedule: Q04DX003 (ip), vehicle: Klucel (hydroxypropylcellulose) (HPC)) 93 % of control; (dose: 400.0 mg/kg/injection, schedule: Q01DX001 (ip), vehicle: Klucel (hydroxypropylcellulose) (HPC)) 96 % of control.

As for `c1ccc(SSc2ccccc2)cc1`, the T/C reads like this: (dose: 25.0 mg/kg/injection, schedule: Q01DX009 (ip), vehicle: saline with Tween-80) 89 % of control; (dose: 25.0 mg/kg/injection, schedule: Q04DX003 (ip), vehicle: saline with Tween-80) 95 % of control; (dose: 50.0 mg/kg/injection, schedule: Q01DX009 (ip), vehicle: saline with Tween-80) 86 % of control; (dose: 50.0 mg/kg/injection, schedule: Q04DX003 (ip), vehicle: saline with Tween-80) 103 % of control; (dose: 100.0 mg/kg/injection, schedule: Q04DX003 (ip), vehicle: saline with Tween-80) 97 % of control.

`c1cc[c]([Sn]([c]2ccccc2)([c]2ccccc2)[n]2nnc3ccccc32)cc1`: the T/C (dose: 6.25 mg/kg/injection, schedule: Q04DX002 (ip), vehicle: saline with Tween-80) is 96 % of control; the T/C (dose: 12.5 mg/kg/injection, schedule: Q04DX002 (ip), vehicle: saline with Tween-80) is 101 % of control; the T/C (dose: 25.0 mg/kg/injection, schedule: Q04DX002 (ip), vehicle: saline with Tween-80) was 101 % of control.

`Cc1cccc(C)c1NC(=O)COc1ccc(Cl)cc1`: the T/C reads like this: under setting [1], 105 % of control; (dose: 100.0 mg/kg/injection, schedule: Q04DX003 (ip), vehicle: Klucel (hydroxypropylcellulose) (HPC)) 95 % of control; under setting [2], 86 % of control; (dose: 200.0 mg/kg/injection, schedule: Q04DX003 (ip), vehicle: Klucel (hydroxypropylcellulose) (HPC)) 93 % of control; under setting [3], 97 % of control; (dose: 400.0 mg/kg/injection, schedule: Q04DX003 (ip), vehicle: Klucel (hydroxypropylcellulose) (HPC)) 91 % of control.

Turning to `O=[N+]([O-])c1cc(S(=O)(=O)c2ccc(Cl)c([N+](=O)[O-])c2)ccc1Cl`, the T/C is, setting by setting: (dose: 25.0 mg/kg/injection, schedule: Q01DX009 (ip), vehicle: Klucel (hydroxypropylcellulose) (HPC)) 92 % of control; (dose: 50.0 mg/kg/injection, schedule: Q01DX009 (ip), vehicle: Klucel (hydroxypropylcellulose) (HPC)) 92 % of control; under setting [1], 90 % of control; under setting [2], 92 % of control; under setting [3], 87 % of control.

On to `O=c1cc(C(F)(F)F)nc(C(F)(F)F)[nH]1`, for which the T/C is 90 % of control (dose: 29.0 mg/kg/injection, schedule: Q01DX Z (ip), vehicle: methylcellulose (MC)); 89 % of control (dose: 45.0 mg/kg/injection, schedule: Q01DX Z (ip), vehicle: methylcellulose (MC)); 89 % of control (dose: 67.0 mg/kg/injection, schedule: Q01DX Z (ip), vehicle: methylcellulose (MC)); 88 % of control (dose: 100.0 mg/kg/injection, schedule: Q01DX Z (ip), vehicle: methylcellulose (MC)).

For `CCC[CH2][Sn]([CH2]CCC)([O]C)[O]C`, the T/C (dose: 4.0 mg/kg/injection, schedule: Q01DX009 (ip), vehicle: Klucel (hydroxypropylcellulose) (HPC)) was 98 % of control; the T/C (dose: 4.0 mg/kg/injection, schedule: Q04DX003 (ip), vehicle: Klucel (hydroxypropylcellulose) (HPC)) was 96 % of control; the T/C (dose: 8.0 mg/kg/injection, schedule: Q01DX009 (ip), vehicle: Klucel (hydroxypropylcellulose) (HPC)) is 98 % of control; the T/C (dose: 8.0 mg/kg/injection, schedule: Q04DX003 (ip), vehicle: Klucel (hydroxypropylcellulose) (HPC)) is 101 % of control; the T/C (dose: 16.0 mg/kg/injection, schedule: Q01DX009 (ip), vehicle: Klucel (hydroxypropylcellulose) (HPC)) was 104 % of control; the T/C (dose: 16.0 mg/kg/injection, schedule: Q04DX003 (ip), vehicle: Klucel (hydroxypropylcellulose) (HPC)) was 99 % of control.

Regarding `Cc1ccc([Si](C)(C)C)cc1`, the T/C is, setting by setting: (dose: 25.6 mg/kg/injection, schedule: Q04DX002 (ip), vehicle: saline with Tween-80) 90 % of control; (dose: 64.0 mg/kg/injection, schedule: Q04DX002 (ip), vehicle: saline with Tween-80) 104 % of control; (dose: 160.0 mg/kg/injection, schedule: Q04DX002 (ip), vehicle: saline with Tween-80) 90 % of control; (dose: 400.0 mg/kg/injection, schedule: Q04DX002 (ip), vehicle: saline with Tween-80) 90 % of control.

For the compound `CC(=O)C1(C)C(=O)N(S(=O)(=O)c2ccc(C)cc2)C(=O)N1S(=O)(=O)c1ccc(C)cc1` (configuration not stated), the T/C was 91 % of control (dose: 100.0 mg/kg/injection, schedule: Q01DX001 (ip), vehicle: saline); 89 % of control (dose: 200.0 mg/kg/injection, schedule: Q01DX001 (ip), vehicle: saline); 100 % of control (dose: 400.0 mg/kg/injection, schedule: Q01DX001 (ip), vehicle: saline).

For `NC(=O)CNC1=C(N2CC2)C(=O)C(NCC(N)=O)=C(N2CC2)C1=O`, the T/C runs as follows: (dose: 0.12 mg/kg/injection, schedule: Q04DX003 (ip), vehicle: saline) 106 % of control; (dose: 0.25 mg/kg/injection, schedule: Q04DX003 (ip), vehicle: saline) 101 % of control; (dose: 0.5 mg/kg/injection, schedule: Q04DX003 (ip), vehicle: saline) 116 % of control; (dose: 1.0 mg/kg/injection, schedule: Q04DX003 (ip), vehicle: saline) 119 % of control; (dose: 1.25 mg/kg/injection, schedule: Q01DX001 (ip), vehicle: saline) 102 % of control; (dose: 1.25 mg/kg/injection, schedule: Q01DX009 (ip), vehicle: saline) 102 % of control. For the same compound, the T/C is 100 % of control (dose: 2.5 mg/kg/injection, schedule: Q01DX001 (ip), vehicle: saline); 124 % of control (dose: 2.5 mg/kg/injection, schedule: Q01DX009 (ip), vehicle: saline); 108 % of control (dose: 5.0 mg/kg/injection, schedule: Q01DX001 (ip), vehicle: saline); 163 % of control (dose: 5.0 mg/kg/injection, schedule: Q01DX009 (ip), vehicle: saline); 193 % of control (dose: 8.0 mg/kg/injection, schedule: Q04DX003 (ip), vehicle: saline); 115 % of control (dose: 10.0 mg/kg/injection, schedule: Q01DX001 (ip), vehicle: saline). Besides, the T/C reads like this: (dose: 10.0 mg/kg/injection, schedule: Q01DX009 (ip), vehicle: saline) 158 % of control and 191 % of control; (dose: 12.0 mg/kg/injection, schedule: Q04DX003 (ip), vehicle: saline) 122 % of control.

Take `O=Cc1ccc(OS(=O)(=O)c2ccc([N+](=O)[O-])cc2)cc1`: the T/C reads like this: under setting [1], 97 % of control; under setting [2], 98 % of control; under setting [3], 90 % of control.

As to `CC(CCN1CCOCC1)(CN=C(N)N)c1cccc2ccccc12` (configuration not stated), the T/C reads like this: (dose: 12.5 mg/kg/injection, schedule: Q01DX009 (ip), vehicle: saline) 111 % of control; (dose: 25.0 mg/kg/injection, schedule: Q01DX009 (ip), vehicle: saline) 97 % of control; (dose: 25.0 mg/kg/injection, schedule: Q04DX002 (ip), vehicle: saline) 93 % of control; (dose: 50.0 mg/kg/injection, schedule: Q01DX009 (ip), vehicle: saline) 100 % of control.

The values are drawn from PubChem BioAssay AID248 (DTP/NCI, 2004).
